How the values were obtained:
[1] = target: T1, TLR7 (Homo sapiens, UniProt Q9NYK1); test: HEK/293 TLR7 Cell Assay; assay type: cell-based; conditions: TLR7/NFKb HEK cells, R848 agonist 10 uM final concentration, Steady-Glo readout; read-out: TLR7 potency
T1 construct: expressed in transfected cells; host or cells: HEK/293 cells carrying TLR7 and an NF-kB luciferase reporter
T1 sequence (Q9NYK1 27-1049): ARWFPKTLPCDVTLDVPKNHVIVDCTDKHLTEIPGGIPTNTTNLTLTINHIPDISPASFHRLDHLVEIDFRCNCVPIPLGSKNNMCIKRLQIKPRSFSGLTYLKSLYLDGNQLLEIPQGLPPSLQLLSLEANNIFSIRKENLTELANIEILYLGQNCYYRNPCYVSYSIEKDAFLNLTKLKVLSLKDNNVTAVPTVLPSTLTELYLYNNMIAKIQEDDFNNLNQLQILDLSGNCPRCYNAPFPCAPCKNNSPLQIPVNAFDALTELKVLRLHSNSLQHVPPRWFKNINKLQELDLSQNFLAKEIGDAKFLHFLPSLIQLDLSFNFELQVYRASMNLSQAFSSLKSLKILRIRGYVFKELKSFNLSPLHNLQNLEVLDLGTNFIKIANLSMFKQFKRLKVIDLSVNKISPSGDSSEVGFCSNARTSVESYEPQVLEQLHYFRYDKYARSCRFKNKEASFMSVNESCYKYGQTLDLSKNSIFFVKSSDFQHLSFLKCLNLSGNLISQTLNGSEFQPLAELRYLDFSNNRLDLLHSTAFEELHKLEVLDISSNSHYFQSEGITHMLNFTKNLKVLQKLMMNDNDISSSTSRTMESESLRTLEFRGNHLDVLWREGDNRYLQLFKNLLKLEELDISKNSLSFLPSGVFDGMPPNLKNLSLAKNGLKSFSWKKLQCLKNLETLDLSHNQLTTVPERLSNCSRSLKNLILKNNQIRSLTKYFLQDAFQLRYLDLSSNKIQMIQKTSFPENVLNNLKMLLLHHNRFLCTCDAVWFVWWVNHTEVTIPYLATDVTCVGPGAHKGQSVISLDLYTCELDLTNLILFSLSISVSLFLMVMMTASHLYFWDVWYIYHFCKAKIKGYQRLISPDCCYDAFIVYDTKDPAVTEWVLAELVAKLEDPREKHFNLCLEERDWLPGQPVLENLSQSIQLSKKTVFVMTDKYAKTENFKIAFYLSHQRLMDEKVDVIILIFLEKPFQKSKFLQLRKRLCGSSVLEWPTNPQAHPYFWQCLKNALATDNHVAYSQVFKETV
Protocol: (§1) Example 389: HEK/293 TLR7 Cell Assay Into 384 CulturePlates (Corning 3765) was placed 5000 c/w of TLR7/NFKb HEK cells in 30 uL DMEM without Phenol red (gibco #31053-028) and 10% heat inactivated fetal bovine serum, 10% penicillin-streptomycin, and 2 mM L-Glutamine. The cells were incubated for 24 h at 37° C., 10% carbon dioxide and 90% relative humidity. 3 uL of controls, standards, and compounds were dispensed into wells, incubated for 30 min then 3 uL of R848 agonist (10 uM final concentration) was added in 20 mM Hepes. After incubation for 5 hours, they were allowed to stand at room temperature for 15 min. To this was added 10 uL of Steady-Glo substrate reagent and shake assay plate for 5 min at 1500 rpm. The assay plate was allowed to sit for 30 min at room temperature and then the plate was read on EnVision.

[2] = target: T2, TLR8 (Homo sapiens, UniProt Q9NR97); test: HEK/293 TLR8 Cell Assay; assay type: cell-based; conditions: HEK cells, R848 agonist 30 uM final concentration, Steady-Glo readout; read-out: TLR8 potency
T2 construct: expressed in transfected cells; host or cells: HEK/293 reporter cells (NF-kB luciferase)
T2 sequence (Q9NR97 27-1041): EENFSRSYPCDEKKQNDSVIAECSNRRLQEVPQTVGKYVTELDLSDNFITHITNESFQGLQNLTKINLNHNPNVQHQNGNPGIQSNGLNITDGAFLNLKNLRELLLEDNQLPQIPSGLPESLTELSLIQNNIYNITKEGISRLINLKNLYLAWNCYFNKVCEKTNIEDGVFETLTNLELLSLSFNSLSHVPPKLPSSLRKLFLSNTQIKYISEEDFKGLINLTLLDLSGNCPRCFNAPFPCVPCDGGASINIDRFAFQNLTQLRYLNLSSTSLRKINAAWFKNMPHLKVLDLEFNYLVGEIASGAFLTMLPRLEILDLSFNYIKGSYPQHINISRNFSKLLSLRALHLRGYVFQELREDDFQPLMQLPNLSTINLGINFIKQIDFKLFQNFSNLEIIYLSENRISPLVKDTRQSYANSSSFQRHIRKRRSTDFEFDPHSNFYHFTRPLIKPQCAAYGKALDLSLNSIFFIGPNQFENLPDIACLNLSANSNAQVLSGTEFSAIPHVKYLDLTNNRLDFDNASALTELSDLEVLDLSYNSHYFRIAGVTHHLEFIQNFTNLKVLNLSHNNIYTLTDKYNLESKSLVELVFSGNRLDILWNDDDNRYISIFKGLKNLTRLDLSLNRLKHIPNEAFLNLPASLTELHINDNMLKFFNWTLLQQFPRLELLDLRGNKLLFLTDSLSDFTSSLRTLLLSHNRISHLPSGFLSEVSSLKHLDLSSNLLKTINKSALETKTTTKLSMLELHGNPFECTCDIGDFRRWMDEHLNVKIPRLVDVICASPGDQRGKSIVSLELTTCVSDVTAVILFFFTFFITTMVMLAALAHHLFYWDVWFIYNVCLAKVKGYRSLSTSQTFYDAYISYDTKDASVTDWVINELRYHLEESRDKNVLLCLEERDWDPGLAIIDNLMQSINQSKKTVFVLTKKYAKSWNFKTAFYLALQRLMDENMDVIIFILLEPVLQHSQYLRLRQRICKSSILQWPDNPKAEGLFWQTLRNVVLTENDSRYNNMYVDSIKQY
Protocol: as §1, with “Example 390:” for “Example 389:”, “HEK/293 TLR8” for “HEK/293 TLR7”, “serum, 1%” for “serum, 10%”, “agonist (30” for “agonist (10”

## C[C@@H]1CN(c2ccc(C#N)c3nccnc23)C[C@H](C(=O)NC[C@H]2COCCN2C)O1 (single isomer, unassigned) [Example 263]
[1]
  IC50: < 75 nM
[2]
  IC50: < 75 nM

## CN[C@@H](CO)C(=O)N[C@@H]1C[C@H](C)CN(c2ccc(C(F)(F)F)c3ncccc23)C1 [Example 168, (S)-3-Hydroxy-2-methylamino-N-[(3R,5S)-5-methyl-1-(8-trifluoromethyl-quinolin-5-yl)-piperidin-3-yl]-propionamide]
[1]
  IC50: > 150 nM
[2]
  IC50: 75 to 150 nM

## C[C@H]1C[C@@H](N)CN(c2cc(F)c(C#N)c3ncccc23)C1 [Example 57, 5-((3R,5S)-3-Amino-5-methyl-piperidin-1-yl)-7-fluoro-quinoline-8-carbonitrile]
[1]
  IC50: < 75 nM
[2]
  IC50: < 75 nM

## C[C@@H]1CN(c2ccc(C#N)c3nccnc23)C[C@H](C(=O)NC[C@@H](O)CN(C)C)O1 (single isomer, unassigned) [Example 262]
[1]
  IC50: < 75 nM
[2]
  IC50: < 75 nM

## C[C@@H]1CN(c2ccc(C#N)c3nccnc23)C[C@H](C(=O)NCCS(C)(=O)=O)O1 [Example 256, (2R,6R)-4-(8-cyanoquinoxalin-5-yl)-N-(2-methanesulfonylethyl)-6-methyl morpholine-2-carboxamide]
[1]
  IC50: < 75 nM
[2]
  IC50: < 75 nM

## C[C@H]1C[C@@H](NCCNC(N)=O)CN(c2ccc(C(F)(F)F)c3ncccc23)C1 [Example 45, {2-[(3R,5S)-5-Methyl-1-(8-trifluoromethyl-quinolin-5-yl)-piperidin-3-ylamino]-ethyl}-urea]
[1]
  IC50: < 75 nM
[2]
  IC50: < 75 nM

## C[C@@H]1CN(c2ccc(C#N)c3nccnc23)C[C@H](CNC(=O)[C@@H](C)O)O1 (single isomer, unassigned) [Example 340]
[1]
  IC50: > 150 nM
[2]
  IC50: < 75 nM

## C[C@@H]1CN(c2ccc(C#N)c3nccnc23)C[C@H](C(=O)N[C@@H](CO)C(=O)O)O1 [Example 321, (S)-2-{[(2R,6R)-4-(8-Cyano-quinoxalin-5-yl)-6-methyl-morpholine-2-carbonyl]-amino}-3-hydroxy-propionic acid]
[1]
  IC50: 75 to 150 nM
[2]
  IC50: > 150 nM

## C[C@H]1C[C@@H](NC(=O)C2CCCCN2)CN(c2ccc(C(F)(F)F)c3ncccc23)C1 (stereo partly drawn) [Example 181, Piperidine-2-carboxylic acid [(3R,5S)-5-methyl-1-(8-trifluoromethyl-quinolin-5-yl)-piperidin-3-yl]-amide]
[1]
  IC50: < 75 nM
[2]
  IC50: < 75 nM

## Cc1ccc(N2C[C@@H](NC(=O)CC3CCN(C(C)C)CC3)CC(F)(F)C2)c2cccnc12 [Example 111, N—[(S)-5,5-Difluoro-1-(8-methyl-quinolin-5-yl)-piperidin-3-yl]-2-(1-isopropyl-piperidin-4-yl)-acetamide]
[1]
  IC50: > 150 nM
[2]
  IC50: > 150 nM

## C[C@H]1C[C@@H](NC(=O)C[C@H]2[C@@H]3C[C@H]2CN(C)C3)CN(c2ccc(C(F)(F)F)c3ncccc23)C1 [Example 106, N-[(3R,5S)-5-methyl-1-[8-(trifluoromethyl)quinolin-5-yl]piperidin-3-yl]-2-[(1R,5S,6s)-3-methyl-3-azabicyclo[3.1.1]heptan-6-yl]acetamide]
[1]
  IC50: < 75 nM
[2]
  IC50: < 75 nM

## COc1ncc(N2C[C@@H](C)C[C@@H](N)C2)c2cccnc12 [Example 151, (3R,5S)-1-(8-Methoxy-[1,7]naphthyridin-5-yl)-5-methyl-piperidin-3-ylamine]
[1]
  IC50: < 75 nM
[2]
  IC50: < 75 nM

## C[C@H]1C[C@@H](NCC(C)(C)O)CN(c2ccc(C(F)(F)F)c3ncccc23)C1 [Example 17, 2-Methyl-1-[(3R,5S)-5-methyl-1-(8-trifluoromethyl-quinolin-5-yl)-piperidin-3-ylamino]-propan-2-ol]
[1]
  IC50: < 75 nM
[2]
  IC50: < 75 nM

## C[C@H]1C[C@@H](NC(=O)CCC2CCN(C)CC2)CN(c2ccc(C#N)c3ncncc23)C1 [Example 191, N-[(3R,5S)-1-(8-Cyano-quinazolin-5-yl)-5-methyl-piperidin-3-yl]-3-(1-methyl-piperidin-4-yl)-propionamide]
[1]
  IC50: 75 to 150 nM
[2]
  IC50: 75 to 150 nM

## C[C@H]1C[C@@H](NC(=O)CCN(C)C)CN(c2ccc(C(F)(F)F)c3ncccc23)C1 [Example 186, 3-Dimethylamino-N-[(3R,5S)-5-methyl-1-(8-trifluoromethyl-quinolin-5-yl)-piperidin-3-yl]-propionamide]
[1]
  IC50: < 75 nM
[2]
  IC50: < 75 nM

## C[C@H]1C[C@@H](NS(=O)(=O)NCCC2CCN(C)CC2)CN(c2ccc(C(F)(F)F)c3ncccc23)C1 [Example 201, N-[2-(1-methylpiperidin-4-yl)ethyl]{[(3R,5S)-5-methyl-1-[8-(trifluoromethyl)quinolin-5-yl]piperidin-3-yl]amino}sulfonamide]
[1]
  IC50: < 75 nM
[2]
  IC50: < 75 nM

## C[C@H]1CN(c2ccc(C#N)c3nccnc23)C[C@H](CN2CCC(N3CCCC3)CC2)O1 [Example 232, 8-[(2S,6S)-2-Methyl-6-(4-pyrrolidin-1-yl-piperidin-1-ylmethyl)-morpholin-4-yl]-quinoxaline-5-carbonitrile]
[1]
  IC50: < 75 nM
[2]
  IC50: < 75 nM

## Cc1ncc(N2C[C@H](NC(=O)CN3CCN(C)CC3)C[C@H](C(F)(F)F)C2)c2cccnc12 [Example 70, N-[(3R,5S)-1-(8-methyl-1,7-naphthyridin-5-yl)-5-(trifluoromethyl)piperidin-3-yl]-2-(4-methylpiperazin-1-yl)acetamide]
[1]
  IC50: 75 to 150 nM
[2]
  IC50: 75 to 150 nM
